Reference: patent US20110190269A1, “GAMMA SECRETASE MODULATORS” (priority 2010, published 2011)

Test system: γ-secretase
Assay: Cellular γ-secretase assay (inhibition of Aβ42 secretion)
Assay type: cell-based
Conditions: human neuroglioma H4 cells overexpressing human APP, 22 hrs incubation
Procedure: Human neuroglioma H4 cells overexpressing human APP were plated at 30,000 cells/well/[…] in 96-well plates in IMDM media containing 10% FCS, […] Hygromycin B and incubated for 2 h at 37° C., 5% CO2 prior to adding test compounds.
Compounds for testing were dissolved in 100% Me2SO yielding in a 10 mM stock solution. Typically […] of these solutions were further diluted in 1000 μl of IMDM media (w/o FCS). Subsequent 1:1 dilutions gave a ten point dose response curve. 100 μl of each dilution was added to the cells in 96-well plates. Appropriate controls using vehicle only and reference compound were applied to this assay. The final concentration of Me2S0 was 0.4%.
After incubation for 22 hrs at 37° C., 5% CO2, 50 μl supernatant was transferred into round-bottom 96-well polypropylene plates for detection of Aβ42. 50 μl assay buffer (50 mM Tris/Cl, pH 7.4, 60 mM NaCl, 0.5% BSA, 1% TWEEN 20) was added to the wells followed by the addition of 100 μl of detection antibody (ruthenylated BAP15 0.0625 μg/ml in assay buffer). 50 μl of a premix of capture antibody (biotinylated 6E10 antibody, 1 μg/ml) and Steptavidin-coated magnetic beads (Dynal M-280, 0.125 mg/ml) were preincubated for 1 hr at room temperature before adding the assay plates. Assay plates were incubated on a shaker for 3 hrs at room temperature and finally read in the Bioveris M8 Analyser according to the manufacturer's instructions (Bioveris).
IC50 values for inhibition of Aβ42 secretion were calculated by nonlinear regression fit analysis using XLfit 4.0 software (IDBS).

Structure (SMILES)	EC50
COc1cc(Nc2nc3cccc(N4CCCCCC4)n3n2)ccc1-n1cnc(C)c1 [Example 31, (5-Azepan-1-yl-[1,2,4]triazolo[1,5-a]pyridin-2-yl)-[3-methoxy-4-(4-methyl-imidazol-1-yl)-phenyl]-amine]	587 nM
CCCc1ncc(CN2CCOCC2)c2nc(Nc3ccc(-n4cnc(C)c4)c(OC)c3)nn12 [Example 32, [3-Methoxy-4-(4-methyl-imidazol-1-yl)-phenyl]-(8-morpholin-4-ylmethyl-5-propyl-[1,2,4]triazolo[1,5-c]pyrimidin-2-yl)-amine]	864 nM
COc1cc(Nc2nc3cccc(N4CCCCC4)n3n2)ccc1-n1cnc(C)c1 [Example 33, [3-Methoxy-4-(4-methyl-imidazol-1-yl)-phenyl]-(5-piperidin-1-yl-[1,2,4]triazolo[1,5-a]pyridin-2-yl)-amine]	556 nM
CCN(CC)c1cccc2nc(Nc3ccc(-n4cnc(C)c4)c(OC)c3)nn12 [Example 34, N5,N5-Diethyl-N2-[3-methoxy-4-(4-methyl-imidazol-1-yl)-phenyl]-[1,2,4]triazolo[1,5-a]pyridine-2,5-diamine]	640 nM
COc1cc(Nc2nc3nccc(-c4ccc(C#N)cc4)n3n2)ccc1-n1cnc(C)c1 [Example 35, 4-{2-[3-Methoxy-4-(4-methyl-imidazol-1-yl)-phenylamino]-[1,2,4]triazolo[1,5-a]pyrimidin-7-yl}-benzonitrile]	5930 nM
COc1cc(Nc2nc3nccc(-c4ccc(C(F)(F)F)cc4)n3n2)ccc1-n1cnc(C)c1 [Example 36, [3-Methoxy-4-(4-methyl-imidazol-1-yl)-phenyl]-[7-(4-trifluoromethyl-phenyl)-[1,2,4]triazolo[1,5-a]pyrimidin-2-yl]-amine]	573 nM
COc1cc(Nc2nc3ncc(C#N)c(-c4ccccc4)n3n2)ccc1-n1cnc(C)c1 [Example 37, 2-[3-Methoxy-4-(4-methyl-imidazol-1-yl)-phenylamino]-7-phenyl-[1,2,4]triazolo[1,5-a]pyrimidine-6-carbonitrile]	260 nM
COc1cc(Nc2nc3ncc(C#N)c(-c4ccccc4Cl)n3n2)ccc1-n1cnc(C)c1 [Example 38, 7-(2-Chloro-phenyl)-2-[3-methoxy-4-(4-methyl-imidazol-1-yl)-phenylamino]-[1,2,4]triazolo[1,5-a]pyrimidine-6-carbonitrile]	578 nM
COc1cc(Nc2nc3ncc(C#N)c(-c4ccc(Cl)cc4)n3n2)ccc1-n1cnc(C)c1 [Example 39, 7-(4-Chloro-phenyl)-2-[3-methoxy-4-(4-methyl-imidazol-1-yl)-phenylamino]-[1,2,4]triazolo[1,5-a]pyrimidine-6-carbonitrile]	145 nM
COc1cc(Nc2nc3ncc(C#N)c(-c4cccc(C)c4)n3n2)ccc1-n1cnc(C)c1 [Example 40, 2-[3-Methoxy-4-(4-methyl-imidazol-1-yl)-phenylamino]-7-m-tolyl-[1,2,4]triazolo[1,5-a]pyrimidine-6-carbonitrile]	417 nM
COc1cc(Nc2nc3nc(C(F)(F)F)cc(-c4cnccn4)n3n2)ccc1-n1cnc(C)c1 [Example 41, [3-Methoxy-4-(4-methyl-imidazol-1-yl)-phenyl]-(7-pyrazin-2-yl-5-trifluoromethyl-[1,2,4]triazolo[1,5-a]pyrimidin-2-yl)-amine]	4310 nM
COc1ccc2nc(Nc3ccc(-n4cnc(C)c4)c(OC)c3)nn2n1 [Example 42, [3-Methoxy-4-(4-methyl-imidazol-1-yl)-phenyl]-(6-methoxy-[1,2,4]triazolo[1,5-b]pyridazin-2-yl)-amine]	1320 nM
COc1cc(Nc2nc3c(OCc4ccccc4)cccn3n2)ccc1-n1cnc(C)c1 [Example 43, (8-Benzyloxy-[1,2,4]triazolo[1,5-a]pyridin-2-yl)-[3-methoxy-4-(4-methyl-imidazol-1-yl)-phenyl]-amine]	680 nM
COc1cc(Nc2nc3c(Cl)cc(Cl)cn3n2)ccc1-n1cnc(C)c1 [Example 44, (6,8-Dichloro-[1,2,4]triazolo[1,5-a]pyridin-2-yl)-[3-methoxy-4-(4-methyl-imidazol-1-yl)-phenyl]-amine]	1560 nM
COc1cc(Nc2nc3ccnc(-c4ccc(F)cc4)n3n2)ccc1-n1cnc(C)c1 [Example 45, [5-(4-Fluoro-phenyl)-[1,2,4]triazolo[1,5-c]pyrimidin-2-yl]-[3-methoxy-4-(4-methyl-imidazol-1-yl)-phenyl]-amine]	1400 nM
COc1cc(Nc2nc3c(-c4ccc(F)cc4)cc(C)cn3n2)ccc1-n1cnc(C)c1 [Example 46, [8-(4-Fluoro-phenyl)-6-methyl-[1,2,4]triazolo[1,5-a]pyridin-2-yl]-[3-methoxy-4-(4-methyl-imidazol-1-yl)-phenyl]-amine]	180 nM
COc1cc(Nc2nc3cc(C(F)(F)F)ccn3n2)ccc1-n1cnc(C)c1 [Example 47, [3-Methoxy-4-(4-methyl-imidazol-1-yl)-phenyl]-(7-trifluoromethyl-[1,2,4]triazolo[1,5-a]pyridin-2-yl)-amine]	1340 nM
COc1cc(Nc2nc3c(Cl)cc(C(F)(F)F)cn3n2)ccc1-n1cnc(C)c1 [Example 48, (8-Chloro-6-trifluoromethyl-[1,2,4]triazolo[1,5-a]pyridin-2-yl)-[3-methoxy-4-(4-methyl-imidazol-1-yl)-phenyl]-amine]	4510 nM
COc1cc(Nc2nc3c(C)cc(Cl)cn3n2)ccc1-n1cnc(C)c1 [Example 49, (6-Chloro-8-methyl-[1,2,4]triazolo[1,5-a]pyridin-2-yl)-[3-methoxy-4-(4-methyl-imidazol-1-yl)-phenyl]-amine]	1350 nM
COc1cc(Nc2nc3ccc(C)c(C)n3n2)ccc1-n1cnc(C)c1 [Example 50, (5,6-Dimethyl-[1,2,4]triazolo[1,5-a]pyridin-2-yl)-[3-methoxy-4-(4-methyl-imidazol-1-yl)-phenyl]-amine]	400 nM
COc1cc(Nc2nc3c(-c4ccc(F)cc4)cccn3n2)ccc1-c1ccnc(C)c1 [Example 53, 8-(4-Fluorophenyl)-N-(3-methoxy-4-(2-methylpyridin-4-yl)phenyl)-[1,2,4]triazolo[1,5-a]pyridin-2-amine]	120 nM
COc1cc(Nc2nc3cccc(-c4ccc(F)cc4)n3n2)ccc1-c1ccnc(C)c1 [Example 54, 5-(4-Fluorophenyl)-N-(3-methoxy-4-(2-methylpyridin-4-yl)phenyl)-[1,2,4]triazolo[1,5-a]pyridin-2-amine]	110 nM
COc1cc(Nc2nc3n(n2)C(c2ccc(F)cc2)CN(S(C)(=O)=O)C3)ccc1-n1cnc(C)c1 (stereo not drawn) [Example 57, 5-(4-Fluorophenyl)-N-(3-methoxy-4-(4-methyl-1H-imidazol-1-yl)phenyl)-7-(methylsulfonyl)-5,6,7,8-tetrahydro-[1,2,4]triazolo[1,5-a]pyrazin-2-amine]	431 nM
COc1cc(Nc2nc3n(n2)C(c2ccc(F)cc2)CN(CC(F)(F)F)C3)ccc1-n1cnc(C)c1 (stereo not drawn) [Example 58, 5-(4-fluorophenyl)-N-(3-methoxy-4-(4-methyl-1H-imidazol-1-yl)phenyl)-7-(2,2,2-trifluoroethyl)-5,6,7,8-tetrahydro-[1,2,4]triazolo[1,5-a]pyrazin-2-amine]	538 nM
COc1cc(Nc2nc3n(n2)CCN(C(=O)C(C)C)C3c2ccc(F)cc2)ccc1-n1cnc(C)c1 (stereo not drawn) [Example 59, 1-(8-(4-Fluorophenyl)-2-(3-methoxy-4-(4-methyl-1H-imidazol-1-yl)phenylamino)-5,6-dihydro-[1,2,4]triazolo[1,5-a]pyrazin-7(8H)-yl)-2-methylpropan-1-one]	590 nM
COc1cc(Nc2nc3c(C)cnc(N4CCCC4)n3n2)ccc1-n1cnc(C)c1 [Example 60, [3-Methoxy-4-(4-methyl-imidazol-1-yl)-phenyl]-(8-methyl-5-pyrrolidin-1-yl-[1,2,4]triazolo[1,5-c]pyrimidin-2-yl)-amine]	672 nM
COc1cc(Nc2nc3n(n2)C(c2ccc(Cl)cc2)CC(=O)N3)ccc1-n1cnc(C)c1 (stereo not drawn) [Example 61, 7-(4-Chloro-phenyl)-2-[3-methoxy-4-(4-methyl-imidazol-1-yl)-phenylamino]-6,7-dihydro-4H-[1,2,4]triazolo[1,5-a]pyrimidin-5-one]	831 nM
COc1cc(Nc2nc3c(-c4ccc(F)c(Cl)c4)cc(C)cn3n2)ccc1-n1cnc(C)c1 [Example 62, [8-(3-Chloro-4-fluoro-phenyl)-6-methyl-[1,2,4]triazolo[1,5-a]pyridin-2-yl]-[3-methoxy-4-(4-methyl-imidazol-1-yl)-phenyl]-amine]	10 nM
COc1cc(Nc2nc3c(-c4ccc(F)c(F)c4)cc(C)cn3n2)ccc1-n1cnc(C)c1 [Example 63, [8-(3,4-Difluoro-phenyl)-6-methyl-[1,2,4]triazolo[1,5-a]pyridin-2-yl]-[3-methoxy-4-(4-methyl-imidazol-1-yl)-phenyl]-amine]	10 nM
COc1cc(F)ccc1-c1cc(C)cn2nc(Nc3ccc(-n4cnc(C)c4)c(OC)c3)nc12 [Example 64, [8-(4-Fluoro-2-methoxy-phenyl)-6-methyl-[1,2,4]triazolo[1,5-a]pyridin-2-yl]-[3-methoxy-4-(4-methyl-imidazol-1-yl)-phenyl]-amine]	73 nM
